Data taken from US7786121B2, “Derivatives of hydroxamic acid as metalloproteinase inhibitors” (Vernalis (Oxford) Limited, priority 2003, dated 2010).

Assays:
[1] = system: IL2-induced peritoneal recruitment of lymphocytes; assay: IL2-induced peritoneal recruitment of lymphocytes in mice; format: in vivo; conditions: C3H mice
Experimental: B. Biological Assay: IL2-Induced Peritoneal Recruitment of Lymphocytes in Mice Protocol
C3H Mice (Elevage Janvier) (8 week old, n=6) received IL2 (SPRI, 20 μg/kg, 40 ml/kg, ip) 15 min after administration of the test molecules. Twenty-four hours later, the animals were sacrificed and the lavage of the peritoneal cavity was conducted using 3×5 ml PBS-1 mM EDTA (+4° C.). After centrifugation (10 min at 3000 rpm), the pellet was resuspended in 1 ml PBS. The peritoneal cells were counted using a Beckman/Coulter counter. IL2 was solubilized in saline. The test compounds of the invention were solubilized or suspended in 0.5% carboxymethylcellulose (CMC)/0.25% Tween-20 and orally administered. […]

92 kDa gelatinase (MMP9) = 92 kDa gelatinase (MMP9) (Homo sapiens, UniProt P14780); assay: MMP9 enzyme inhibition assay, coumarin-labelled peptide substrate; format: biochemical; conditions: recombinant human MMP-9, 37° C., 2 hours; read-out: MMP-9 (nM) inhibitory activity
Sequence of 92 kDa gelatinase (MMP9) (P14780 107-707 limits assumed): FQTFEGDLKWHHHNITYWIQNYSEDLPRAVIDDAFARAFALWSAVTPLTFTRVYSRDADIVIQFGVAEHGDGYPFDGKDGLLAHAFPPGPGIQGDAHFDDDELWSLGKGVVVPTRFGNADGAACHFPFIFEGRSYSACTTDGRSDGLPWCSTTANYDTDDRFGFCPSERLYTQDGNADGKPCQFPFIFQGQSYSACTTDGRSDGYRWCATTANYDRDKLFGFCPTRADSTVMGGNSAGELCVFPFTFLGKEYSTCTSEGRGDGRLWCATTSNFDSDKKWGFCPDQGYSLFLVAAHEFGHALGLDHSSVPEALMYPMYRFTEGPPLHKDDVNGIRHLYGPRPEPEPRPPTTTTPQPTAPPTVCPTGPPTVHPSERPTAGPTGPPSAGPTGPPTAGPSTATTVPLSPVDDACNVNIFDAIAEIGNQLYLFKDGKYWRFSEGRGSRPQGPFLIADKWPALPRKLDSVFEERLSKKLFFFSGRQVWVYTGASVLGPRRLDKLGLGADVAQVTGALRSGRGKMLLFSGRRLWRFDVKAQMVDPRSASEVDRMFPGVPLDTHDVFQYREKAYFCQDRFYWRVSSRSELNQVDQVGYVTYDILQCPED
Experimental: (§1) Compounds of the invention were tested for inhibitory activity against 92 kDa gelatinase (MMP9) in an assay using a coumarin-labelled peptide substrate, (7-methoxycoumarin-4-yl)acetyl-Pro-Leu-Gly-Leu-(3-[2,4-dinitrophenyl]-L-2,3-diaminopropionyl)-Ala-Arg-NH2 (McaPLGLDpaAR) (Knight et al, FEBS Lett. 1992; 263-266).
(§2) Stock solutions were made up as follows: • Assay Buffer: 100 mM Tris-HCl pH 7.6 containing 100 mM NaCl, 10 mM CaCl2, and 0.05% Brij 35 • Substrate: 0.4 mM McaPLGLDpaAR (from Bachem) (0.437 mg/ml) stock solution in 100% • DMSO (stored at −20° C.). Dilute to 8 μM in assay buffer. • Enzyme: Recombinant human 92 kDa gelatinase (MMP-9; APMA (4-aminophenylmercuric acetate)-activated if necessary) appropriately diluted in assay buffer.
(§3) Test Compounds were prepared initially as 10 mM compound solution in 100% DMSO, diluted to 1 mM in 100% DMSO, then serially diluted 3-fold in 100% DMSO across columns 1-10 of a 96-well microtitre plate Assay concentration range, 100 μM (column 1) to 5.1 nM (column 10)
(§4) The assay was performed in a total volume of 100 μl upper well in 96-well microtitre plates. Activated enzyme (20 μl) was added to the wells followed by 20 μl of assay buffer. Appropriate concentrations of test compounds dissolved in 10 μl of DMSO were then added followed by 50 μl of McaPLGLDpaAR (8 μM, prepared by dilution of DMSO stock in assay buffer). For each assay ten concentrations of test compound were examined in duplicate. Control wells lack either enzyme or test compound. The reactions were incubated at 37° C. for 2 hours. The fluorescence at 405 nm was measured immediately with an SLT Fluostar fluorometer (SLT Labinstruments GmbH, Grödig, Austria) using 320 nm excitation, without stopping the reaction.
(§5) The effect of the test compound was determined from the dose response curve generated by the 10 duplicate concentrations of inhibitor. The IC50 (the concentration of compound required to give a 50% decrease in enzyme activity) was obtained by fitting data to the equation, Y=a+((b−a)/(1+(c/X)^d)). (Y=inhibition achieved for a particular dose; X=the dose in nM; a=minimum y or zero % inhibition; b=maximum y or 100% inhibition; c=is the IC50; d=is the slope). The result was rounded to one significant figure.

MMP-2 = target: T1, MMP-2 (Homo sapiens, UniProt P08253); assay: MMP-2 enzyme inhibition; format: biochemical; conditions: read-out: MMP-2 (nM) inhibitory activity
T1 sequence (P08253 110-660): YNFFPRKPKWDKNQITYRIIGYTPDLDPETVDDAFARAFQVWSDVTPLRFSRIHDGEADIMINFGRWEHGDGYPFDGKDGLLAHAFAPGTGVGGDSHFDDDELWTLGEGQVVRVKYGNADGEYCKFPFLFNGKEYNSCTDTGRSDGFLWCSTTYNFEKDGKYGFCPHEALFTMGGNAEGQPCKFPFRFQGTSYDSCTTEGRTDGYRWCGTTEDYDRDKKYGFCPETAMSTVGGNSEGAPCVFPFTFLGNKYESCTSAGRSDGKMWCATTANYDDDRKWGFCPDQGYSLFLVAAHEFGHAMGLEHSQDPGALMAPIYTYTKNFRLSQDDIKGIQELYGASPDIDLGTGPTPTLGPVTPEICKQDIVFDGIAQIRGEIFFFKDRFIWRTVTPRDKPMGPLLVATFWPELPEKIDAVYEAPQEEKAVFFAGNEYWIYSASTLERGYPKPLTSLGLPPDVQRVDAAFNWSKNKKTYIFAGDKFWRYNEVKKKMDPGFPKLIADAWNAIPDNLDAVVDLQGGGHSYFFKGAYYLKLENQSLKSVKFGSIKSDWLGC
From the text: For instance the inhibitory activities of some of the compounds of the examples against MMP-12, MMP-9, MMP-2 and MMP-1 are set out in the following table: […]

metalloelastase (MMP12) = metalloelastase (MMP12) (Homo sapiens, UniProt P39900); assay: MMP12 enzyme inhibition assay, coumarin-labelled peptide substrate; format: biochemical; conditions: read-out: MMP-12 (nM) inhibitory activity
Sequence of metalloelastase (MMP12) (P39900 106-470): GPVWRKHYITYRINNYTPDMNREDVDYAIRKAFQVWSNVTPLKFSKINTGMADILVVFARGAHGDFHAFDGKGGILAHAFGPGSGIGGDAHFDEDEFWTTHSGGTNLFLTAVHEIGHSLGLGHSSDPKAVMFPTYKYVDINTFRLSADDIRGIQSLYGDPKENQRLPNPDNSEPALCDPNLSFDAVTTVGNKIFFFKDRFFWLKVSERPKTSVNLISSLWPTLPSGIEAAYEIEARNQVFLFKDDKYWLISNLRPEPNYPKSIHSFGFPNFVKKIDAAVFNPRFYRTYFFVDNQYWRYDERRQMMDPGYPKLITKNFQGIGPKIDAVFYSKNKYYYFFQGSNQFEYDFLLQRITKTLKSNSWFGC
Experimental: as §2, §3, §4, §5
as §1, with “metalloelastase (MMP12)” for “92 kDa gelatinase (MMP9)”, “263-266). The protocol for this assay was as described for the MMP9 assay above.” for “263-266).”

collagenase (MMP1) = target: T2, collagenase (MMP1) (Homo sapiens, UniProt P03956); assay: MMP1 enzyme inhibition assay, coumarin-labelled peptide substrate; format: biochemical; conditions: read-out: MMP-1 (nM) inhibitory activity
T2 sequence (P03956 100-469): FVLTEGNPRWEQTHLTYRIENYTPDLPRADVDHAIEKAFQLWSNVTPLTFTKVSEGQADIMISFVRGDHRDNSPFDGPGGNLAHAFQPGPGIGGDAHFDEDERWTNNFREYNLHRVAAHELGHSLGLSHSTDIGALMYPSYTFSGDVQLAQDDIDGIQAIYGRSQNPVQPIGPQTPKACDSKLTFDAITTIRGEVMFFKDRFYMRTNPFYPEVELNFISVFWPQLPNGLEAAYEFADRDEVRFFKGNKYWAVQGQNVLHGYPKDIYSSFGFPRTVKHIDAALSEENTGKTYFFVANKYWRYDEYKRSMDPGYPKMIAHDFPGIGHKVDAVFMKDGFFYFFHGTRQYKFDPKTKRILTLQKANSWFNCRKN
Experimental: as §2, §3, §4, §5
as §1, with “collagenase (MMP1)” for “92 kDa gelatinase (MMP9)”, “263-266). The protocol for this assay was as described for the MMP9 assay above.” for “263-266).”

[2] = 3 mg/kg po, 15 min before IL2 ip, cells counted 24 h later

SMILES	% Inhibition of IL2-induced peritoneal recruitment ([1]; 1 mg/kg sc (reference compound))	IC50 (92 kDa gelatinase (MMP9))	IC50 (MMP-2)	IC50 (metalloelastase (MMP12))	IC50 (collagenase (MMP1))	% Inhibition of IL2-induced peritoneal recruitment [1, 2]
C[C@@H]1C[C@H]2[C@@H]3CCC4=CC(=O)C=C[C@]4(C)[C@@]3(F)[C@@H](O)C[C@]2(C)[C@@]1(O)C(=O)CO [Dexamethazone, Dexamethasone, reference compound]	76%	–	–	–	–	–
CCOc1ccc(CCC[C@@H](C(=O)N2CCN(Cc3ccccc3)CC2)[C@H](O)C(=O)NO)cc1 [Example 14, 6-(4-ethoxy-phenyl)-2S-hydroxy-3R-(4-benzylpiperazine-1-carbonyl)-hexanoic acid hydroxyamide]	–	< 100 nM	< 100 nM	< 100 nM	> 10000 nM	30%
CCOc1ccc(CCC[C@@H](C(=O)N2CCN(Cc3ccncc3)CC2)[C@H](O)C(=O)NO)cc1 [Example 13, 6-(4-ethoxy-phenyl)-2S-hydroxy-3R-(4-pyridin-4-ylmethyl-piperazine-1-carbonyl)-hexanoic acid hydroxyamide]	–	< 100 nM	< 100 nM	< 100 nM	> 10000 nM	47%
CCOc1ccc(CCC[C@@H](C(=O)N2CCN(c3ccccn3)CC2)[C@H](O)C(=O)NO)cc1 [Example 5, 6-(4-ethoxy-phenyl)-2S-hydroxy-3R-(4-pyridin-2-yl-piperazine-1-carbonyl)-hexanoic acid hydroxyamide]	–	< 100 nM	< 100 nM	< 100 nM	> 10000 nM	50%
CCOc1ccc(CCC[C@@H](C(=O)N2CCN(c3ccccc3F)CC2)[C@H](OC)C(=O)NO)cc1 [Example 62, 6-(4-ethoxy-phenyl)-2S-methoxy-3R-[4-(2-fluoro-phenyl)-piperazine-1-carbonyl]-hexanoic acid hydroxyamide]	–	< 100 nM	< 100 nM	< 100 nM	> 10000 nM	–
CCOc1ccc(CCC[C@@H](C(=O)N2CCN(c3ccccc3F)CC2)[C@H](O)C(=O)NO)cc1 [Example 20, 6-(4-ethoxy-phenyl)-2S-hydroxy-3R-[4-(2-fluoro-phenyl)-piperazine-1-carbonyl]-hexanoic acid hydroxyamide]	–	< 100 nM	< 100 nM	< 100 nM	> 10000 nM	57%
CCOc1ccc(CCC[C@@H](C(=O)N2CCN(Cc3ccc4c(c3)OCO4)CC2)[C@H](O)C(=O)NO)cc1 [Example 12, 3R-(4-benzo[1,3]dioxol-5-ylmethyl-piperazine-1-carbonyl)-6-(4-ethoxy-phenyl)-2S-hydroxy-hexanoic acid hydroxyamide]	–	< 100 nM	< 100 nM	< 100 nM	> 10000 nM	–
CCOc1ccc(CCC[C@@H](C(=O)N2CCN(c3ccc(OC)cc3)CC2)[C@H](O)C(=O)NO)cc1 [Example 4, 6-(4-ethoxy-phenyl)-2S-hydroxy-3R-[4-(4-methoxy-phenyl)-piperazine-1-carbonyl]-hexanoic acid hydroxyamide]	–	< 100 nM	< 100 nM	< 100 nM	> 10000 nM	34%
CCOc1ccc(CCC[C@@H](C(=O)N2CCN(c3ccncc3)CC2)[C@H](O)C(=O)NO)cc1 [Example 6, 6-(4-ethoxy-phenyl)-2S-hydroxy-3R-(4-pyridin-4-yl-piperazine-1-carbonyl)-hexanoic acid hydroxyamide]	–	100 to 1000 nM	100 to 1000 nM	< 100 nM	> 10000 nM	33%
